Test results from PMC12592502, “Unraveling the mechanisms behind the enhanced efficacy of β-lactam-based sideromycins” (Communications Biology, 2025).
Values after ≈ are worked out from the molar mass of the structure shown. Where two headings read alike, the source gives them in different places.

Assays:
P. aeruginosa ATCC 27853 = experiment: MIC, broth microdilution (CLSI); type: cell-based, Pseudomonas aeruginosa; conditions: for MIC in combination with PAβN: + 25 µg/mL PAβN
Protocol: All bacterial strains (see description and sources Table S1) were stored at −80 °C, and grown on tryptone soya agar (TSA) at 35 °C. The iron-deprived (ID)-MHBCA (cation-adjusted Muller-Hinton Broth, Becton Dickinson, Mississauga, ON, Canada) medium was prepared as reported by refs. [21],[50]. Briefly, MHBCA was treated with 10% Chelex® 50-100 mesh (Sigma) and stirred for 6 h at room temperature. The resin was removed by filtration. Divalent Ca^2+ (CaCl2), Mg^2+ (MgCl2), and Zn^2+(ZnSO4), were then added in the iron-depleted medium at 22, 12, and 1 μg/ml respectively. Finally, the pH was adjusted to 7.3, and the medium was sterilized with a 0.2-μm filter. Regular MHBCA (i.e., not treated with Chelex®) was used to compare the inhibitory activity of conjugates in iron-sufficient conditions.
(§1) Minimal inhibitory concentrations (MICs) were performed using a broth microdilution technique according to the Clinical and Laboratory Standards Institute (CLSI) guidelines. MICs were determined in MHBCA and in ID-MHBCA. To check the impact of β-lactamases, MICs in the presence of a β-lactamase inhibitor were also determined. The inhibitor was homogenized at 2X the final concentration and added to the bacterial inoculum just before distributing cells into the wells containing the drug dilutions. The final concentration of each inhibitor was 4 μg/mL for clavulanic acid (tested against K. pneumoniae) and 200 μg/mL for 3-aminophenylboronic acid (tested against P. aeruginosa and A. baumannii).

E. coli ΔacrAB = experiment: MIC, efflux pump mutant; type: cell-based, Escherichia coli
Protocol: as §1

PBP2 [1] = target: PBP2 (Klebsiella pneumoniae, UniProt A6T696); experiment: Membrane PBP binding assay, competition with Bocillin FL; design: species or system K. pneumoniae ATCC 13883
PBP2 (Klebsiella pneumoniae, UniProt A6T696), sequence (A6T696 entry or part of it): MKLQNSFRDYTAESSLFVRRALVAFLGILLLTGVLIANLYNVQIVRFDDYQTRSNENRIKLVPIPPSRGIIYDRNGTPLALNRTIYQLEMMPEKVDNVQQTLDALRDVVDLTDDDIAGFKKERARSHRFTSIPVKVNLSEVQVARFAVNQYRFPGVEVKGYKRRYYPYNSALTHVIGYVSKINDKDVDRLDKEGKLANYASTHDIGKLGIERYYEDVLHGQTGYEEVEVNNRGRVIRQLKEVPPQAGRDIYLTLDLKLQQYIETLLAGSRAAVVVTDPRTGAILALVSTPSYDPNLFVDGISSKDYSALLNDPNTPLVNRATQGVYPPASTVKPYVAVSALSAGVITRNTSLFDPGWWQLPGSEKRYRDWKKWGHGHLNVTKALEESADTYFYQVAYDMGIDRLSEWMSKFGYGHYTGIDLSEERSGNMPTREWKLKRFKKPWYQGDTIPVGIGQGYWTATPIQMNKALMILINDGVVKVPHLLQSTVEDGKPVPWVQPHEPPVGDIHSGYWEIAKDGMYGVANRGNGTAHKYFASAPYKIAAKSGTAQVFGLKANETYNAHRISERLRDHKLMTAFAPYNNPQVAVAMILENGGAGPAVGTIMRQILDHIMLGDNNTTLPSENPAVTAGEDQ
Protocol: (§2) Membrane extracts containing PBPs were obtained as described above. Briefly, all species were grown in 1 L of TSB until the OD600 reached 0.9. The washed pellet was incubated with lysozyme (400 μg/mL), DNase (10 μg/mL) RNase(10 μg/mL) and anti-protease cocktail (200 mg/20 mL). Lysis was done with a French press (20,000 psi) and membrane protein were pelleted by ultracentrifugation steps (100,000 × g). The pellet was suspended in a minimal volume (300–500 μL) of KP 0.05 M buffer at pH 7. The protein concentration in the membrane preparations was determined with the Micro BCA TM Protein Assay Kit (Thermo Fisher Scientific, Rockford, IL) using bovine serum albumin as a standard.
(§3) The PBP binding assay was done as described previously[36],[56],[57]. For each antibiotic concentration tested, a quantity of 25 to 40 μg of membrane preparation was used as the source of PBPs, depending on the species. For the purified PaPBP3, 150 ng was used in the assay. First, increasing concentrations of the test antibiotic was added to the membrane or purified PaPBP3 preparations and incubated for 10 min at 30 °C. The reporter molecule Bocillin FL was then added at 12.5 μM for the membrane PBPs preparations and at 500 nM for the pure PaPBP3 samples for an additional 20 min at 30 °C. All reactions were stopped with the addition of the Laemmli-loading buffer (Bio-Rad) containing fresh β-mercaptoethanol (Sigma). All reactions were then heated at 100°C for 3 min before migration on SDS-polyacrylamide discontinuous gel system (7.5% stacking and 10% separating). Control samples without Bocillin FL were also included to highlight autofluorescent proteins that are not PBPs.
(§4) To be able to visualize labeled PBPs after electrophoresis, gels were rinsed in water and fixed in a solution of 50% methanol and 7% acetic acid for 30 min. The fluorescent images of gels were obtained with the Typhoon FLA 9500 instrument (GE-Healthcare Bio-Sciences Inc., Baie-d’Urfé, QC, CA) using a 473 nm excitation wavelength. To obtain quantifiable data, the software Quantity One 1D analysis was used (version 4.6.6; Bio-Rad Laboratories, Richmond, CA). The volume (intensity × constant area) of each PBP was measured. […] All IC50 data were obtained from at least two independent PBP binding assays using two different sets of compound concentrations using a linear regression. The PBP profiles were confirmed, and the PBP numbering were determined using published data and individual molecular weights. […] For example, amdinocillin (Sigma) was used for PBP2 identification. […] The IC50 for PBP 2 of P. aeruginosa was measured by including the SDS-PAGE comigrating autofluorescent protein in the background, as done previously.

PBP1a = target: T1, PBP1a (Pseudomonas aeruginosa, UniProt Q07806); experiment: as above
T1 construct: using bacterial membranes as the source of PBPs; endogenous in cells; host or cells: P. aeruginosa ATCC 27853 membrane preparation
T1 sequence (Q07806 whole entry): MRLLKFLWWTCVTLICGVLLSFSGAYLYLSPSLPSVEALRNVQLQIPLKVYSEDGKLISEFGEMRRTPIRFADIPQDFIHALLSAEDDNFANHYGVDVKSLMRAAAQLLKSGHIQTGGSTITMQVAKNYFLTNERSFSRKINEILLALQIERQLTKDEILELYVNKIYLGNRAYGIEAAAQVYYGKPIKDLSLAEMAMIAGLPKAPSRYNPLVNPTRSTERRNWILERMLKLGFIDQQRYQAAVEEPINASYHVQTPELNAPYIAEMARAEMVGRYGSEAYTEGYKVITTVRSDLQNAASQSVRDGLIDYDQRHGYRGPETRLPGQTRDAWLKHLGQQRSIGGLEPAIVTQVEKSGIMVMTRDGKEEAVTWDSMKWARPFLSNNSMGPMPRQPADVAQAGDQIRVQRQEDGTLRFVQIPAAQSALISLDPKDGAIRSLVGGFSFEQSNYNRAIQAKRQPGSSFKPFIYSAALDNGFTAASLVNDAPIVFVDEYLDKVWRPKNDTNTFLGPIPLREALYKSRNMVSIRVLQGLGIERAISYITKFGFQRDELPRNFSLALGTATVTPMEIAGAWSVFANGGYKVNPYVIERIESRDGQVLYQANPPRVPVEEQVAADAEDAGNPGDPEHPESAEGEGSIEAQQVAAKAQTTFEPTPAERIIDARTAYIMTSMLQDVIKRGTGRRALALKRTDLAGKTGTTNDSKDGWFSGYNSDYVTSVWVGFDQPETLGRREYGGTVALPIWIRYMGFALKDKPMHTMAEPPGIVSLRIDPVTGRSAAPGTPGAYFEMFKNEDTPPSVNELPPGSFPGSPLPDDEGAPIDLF
Protocol: as §2, §3, §4

PBP2 [2] = target: T2, PBP2 (Pseudomonas aeruginosa, UniProt Q9X6V3); experiment: as above
T2 construct: using bacterial membranes as the source of PBPs; endogenous in cells; host or cells: P. aeruginosa ATCC 27853 membrane preparation
T2 sequence (Q9X6V3 1-646): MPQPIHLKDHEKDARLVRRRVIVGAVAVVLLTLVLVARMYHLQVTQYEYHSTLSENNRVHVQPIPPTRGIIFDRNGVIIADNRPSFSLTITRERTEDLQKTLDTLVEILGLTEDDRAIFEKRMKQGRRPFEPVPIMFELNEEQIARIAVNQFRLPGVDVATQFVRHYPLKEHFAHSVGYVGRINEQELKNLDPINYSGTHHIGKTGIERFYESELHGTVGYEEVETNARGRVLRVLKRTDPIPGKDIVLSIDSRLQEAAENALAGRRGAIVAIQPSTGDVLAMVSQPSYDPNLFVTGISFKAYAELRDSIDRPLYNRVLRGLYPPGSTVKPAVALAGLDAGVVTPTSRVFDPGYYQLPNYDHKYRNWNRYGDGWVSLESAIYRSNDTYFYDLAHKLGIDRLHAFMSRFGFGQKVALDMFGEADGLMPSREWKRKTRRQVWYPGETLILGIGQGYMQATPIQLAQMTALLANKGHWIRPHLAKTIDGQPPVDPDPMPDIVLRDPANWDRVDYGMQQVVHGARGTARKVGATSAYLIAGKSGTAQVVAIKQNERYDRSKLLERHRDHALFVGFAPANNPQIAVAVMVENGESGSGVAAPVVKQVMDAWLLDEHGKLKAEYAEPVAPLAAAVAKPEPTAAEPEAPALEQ
Protocol: as §2, §3, §4

[3] = ID-MHBCA (−), 0 µg/mL supplemental iron, read-out: MIC
[4] = MHBCA (+), no inhibitor, read-out: MIC
[5] = Pseudomonas aeruginosa, ATCC27853, ID-MHBCA (−), 0 µg/mL supplemental iron, read-out: MIC
[6] = Pseudomonas aeruginosa, ATCC27853, ID-MHBCA + 1 µg/mL supplemental iron, read-out: MIC
[7] = Pseudomonas aeruginosa, ATCC27853, ID-MHBCA, + 200 μg/mL APB, read-out: MIC with β-lactamase inhibitor (βI)
[8] = Pseudomonas aeruginosa, ATCC27853, MHBCA (+), no inhibitor, read-out: MIC
[9] = Pseudomonas aeruginosa, ATCC27853, MHBCA, + 200 μg/mL 3-aminophenylboronic acid (APB), read-out: MIC with β-lactamase inhibitor (βI)
[10] = K. pneumoniae ATCC 13883 membranes, read-out: IC50 PBP2
[11] = Pseudomonas aeruginosa, ATCC27853, ID-MHBCA + 0.1 µg/mL supplemental iron, read-out: MIC
[12] = P. aeruginosa ATCC 27853 membranes, read-out: IC50 PBP1a
[13] = P. aeruginosa ATCC 27853 membranes, read-out: IC50 PBP2

| SMILES | MIC (P. aeruginosa ATCC 27853; [3]) | MIC (P. aeruginosa ATCC 27853; [4]) | MIC in combination with PAβN (P. aeruginosa ATCC 27853; MHBCA) | MIC (P. aeruginosa ATCC 27853; [5]) | MIC (P. aeruginosa ATCC 27853; [6]) | MIC (P. aeruginosa ATCC 27853; [7]) | MIC (P. aeruginosa ATCC 27853; [8]) | MIC (P. aeruginosa ATCC 27853; [9]) | MIC (E. coli ΔacrAB; Escherichia coli) | IC50 (PBP2 [1]; [10]) | MIC ratio unconjugated β-lactam/conjugate (P. aeruginosa ATCC 27853; ID-MHBCA) | MIC ratio unconjugated β-lactam/conjugate (P. aeruginosa ATCC 27853; MHBCA) | MIC (P. aeruginosa ATCC 27853; [11]) | IC50 (PBP1a; [12]) | IC50 (PBP2 [2]; [13]) | also measured |
| --- | --- | --- | --- | --- | --- | --- | --- | --- | --- | --- | --- | --- | --- | --- | --- | --- |
| CC1(C)S[C@@H]2[C@H](NC(=O)[C@H](N)c3ccccc3)C(=O)N2[C@H]1C(=O)O [AMP, ampicillin, reference compound] | >200 µM | >200 µM | > 200 µM | > 200 µM | > 200 µM | 100 µM | > 200 µM | 100 µM | 6.3 µM (≈ 2.2 µg/mL) | 9.2 ± 1.9 µM | – | – | – | – | – | IC50 (PBP1a): 1900 ± 1500 nM; IC50 (PBP2 [2]): > 50 µM |
| CC1(C)SC2C(NC(=O)C(NC(=O)CN(CCCCNC(=O)c3cccc(O)c3O)C(=O)c3cccc(O)c3O)c3ccccc3)C(=O)N2C1C(=O)O (stereo not shown) [BAMP, bis-catechol (azotochelin)-ampicillin] | – | – | 0.2 µM | 0.1 µM (≈ 0.075 µg/mL) | 13 µM | 0.1 µM | 1.6 µM (≈ 1.2 µg/mL) | 1.6 µM | 0.05 µM (≈ 0.0375 µg/mL) | 5.1 ± 2.1 µM | >2048 | >128 | 0.8 µM | 1400 ± 700 nM | > 50 µM | potentiation of activity (MIC decrease) by PAβN (P. aeruginosa ATCC 27853; 25 µg/mL PAβN): 8 fold; MIC ratio 0/1 (P. aeruginosa ATCC 27853; ID-MHBCA, 0 and 1 µg/mL supplemental iron (Table S2)): 128; MIC ratio 1/0 (P. aeruginosa ATCC 27853; ID-MHBCA, 1 versus 0 µg/mL supplemental iron (peer review file table)): 128 |
| O=C(CCC(=O)N(CCCCNC(=O)c1cccc(O)c1O)CCCNC(=O)c1cccc(O)c1O)NCCCCCN(O)C(=O)CCCC(=O)NC(C(=O)NC1C(=O)N2C(C(=O)O)=C(Cl)CSC12)c1ccccc1 (stereo not shown) [MCEF, mixed ligand bis-catechol-mono-hydroxamate-cefaclor] | >200 µM | >200 µM | > 200 µM | > 200 µM | > 200 µM | > 200 µM | > 200 µM | > 200 µM | 3.1 µM (≈ 3.35 µg/mL) | – | No activity | No activity | – | 390 ± 350 nM | 6.74 ± 0.03 µM | MIC (P. aeruginosa ATCC 27853; MHBCA (+), no inhibitor, listed as Mix-CEF, read-out: MIC): > 200 µM; IC50 (PBP2 [1]; read-out: IC50 PBP2, K. pneumoniae ATCC 13883 membranes): 16.8 ± 0.3 µM |
| N[C@@H](C(=O)N[C@@H]1C(=O)N2C(C(=O)O)=C(Cl)CC[C@H]12)c1ccccc1 [LOR, loracarbef, reference compound] | >200 µM | >200 µM | > 200 µM | – | – | – | – | – | – | > 50 µM | – | – | – | > 50000 nM | > 50 µM | MIC (P. aeruginosa ATCC 27853; ID-MHBCA + 1 µg/mL supplemental iron, read-out: MIC): > 200 µM; MIC (P. aeruginosa ATCC 27853; ID-MHBCA, + 200 μg/mL APB, read-out: MIC with β-lactamase inhibitor (βI)): >200 µM; MIC (P. aeruginosa ATCC 27853; MHBCA, + 200 μg/mL 3-aminophenylboronic acid (APB), read-out: MIC with β-lactamase inhibitor (βI)): >200 µM; MIC (E. coli ΔacrAB; ΔacrAB): 3.1 µM (≈ 1.08 µg/mL) |
| N[C@@H](C(=O)N[C@@H]1C(=O)N2C(C(=O)O)=C(Cl)CS[C@H]12)c1ccccc1 [CEF, cefaclor, reference compound] | >200 µM | >200 µM | > 200 µM | > 200 µM | > 200 µM | > 200 µM | > 200 µM | > 200 µM | 6.3 µM (≈ 2.32 µg/mL) | – | – | – | – | 33900 ± 6900 nM | > 50 µM | IC50 (PBP2 [1]): > 50 µM |
| O=C(CN(CCCCNC(=O)c1cccc(O)c1O)C(=O)c1cccc(O)c1O)NC(C(=O)NC1C(=O)N2C(C(=O)O)=C(Cl)CCC12)c1ccccc1 (stereo not shown) [BLOR, bis-catechol (azotochelin)-loracarbef] | >200 µM | – | > 200 µM | > 200 µM | > 200 µM | 0.8 µM | 13 µM (≈ 9.75 µg/mL) | 6.3 µM | 0.012 µM (≈ 0.009 µg/mL) | 33.9 ± 5.6 µM | No activity | >16 | > 200 µM | 580 ± 40 nM | 4.8 ± 3 µM | – |
